The test has as its target T1, human hNET (Homo sapiens, UniProt P23975).
T1 construct: expressed in transfected cells; host or cells: MDCK-Net6 (MDCK cells, stably transfected)
The test is described as follows: Norepinephrine (NE) uptake assay in MDCK-Net6 cells. Conditions: [3H]NE uptake; for inhibition at 1 µM: 1 μM test compound, read-out: % Inhibition @ 1 μM (hNET); for pEC50: test range 1 to 10,000 nM. In kind it is cell-based. The essentials: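 Radiolabelled NE uptake was counted by scintillation after NaOH lysis, with 1 µM desipramine defining non-specific uptake. EC50 came from a logistic dose-response fit.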

pEC50: −log10 of the molar value. Counter-ions that a name gives are not always drawn.

T1 sequence (P23975 whole entry): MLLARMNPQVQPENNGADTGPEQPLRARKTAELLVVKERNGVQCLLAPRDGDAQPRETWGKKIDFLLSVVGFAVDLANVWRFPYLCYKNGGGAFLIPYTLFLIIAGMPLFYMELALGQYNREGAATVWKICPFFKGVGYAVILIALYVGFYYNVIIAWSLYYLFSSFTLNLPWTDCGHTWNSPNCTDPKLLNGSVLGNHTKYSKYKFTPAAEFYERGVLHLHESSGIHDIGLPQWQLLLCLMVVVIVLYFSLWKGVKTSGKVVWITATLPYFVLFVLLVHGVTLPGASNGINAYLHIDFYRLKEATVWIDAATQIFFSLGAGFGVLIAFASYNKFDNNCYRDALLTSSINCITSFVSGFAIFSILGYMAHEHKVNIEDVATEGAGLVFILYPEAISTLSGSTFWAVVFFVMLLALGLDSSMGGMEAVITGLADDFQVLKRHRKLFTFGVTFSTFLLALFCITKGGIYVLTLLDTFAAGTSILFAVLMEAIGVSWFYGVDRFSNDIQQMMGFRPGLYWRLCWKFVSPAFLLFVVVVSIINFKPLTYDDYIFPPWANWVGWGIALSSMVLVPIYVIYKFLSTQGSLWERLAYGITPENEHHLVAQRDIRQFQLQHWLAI

In the case of `OC1(C(CN2CCNCC2)c2ccc(Oc3cccc4ccccc34)cc2)CCCCC1` (stereo not shown) [Example 389, 1-{1-[4-(1-naphthyloxy)phenyl]-2-piperazin-1-ylethyl}cyclohexanol dihydrochloride], the inhibition (commonly the drop in the measured response relative to a control, in per cent) at 1 µM stood at 16%.

For `COc1cc(C(CN2CCNCC2)C2(O)CCCCC2)cc(Br)c1OCc1ccccc1` (stereo not shown) [Example 390, 1-{1-[4-(benzyloxy)-3-bromo-5-methoxyphenyl]-2-piperazin-1-ylethyl}cyclohexanol dihydrochloride], the inhibition at 1 µM came out at 6%.

For the molecule `COc1cc(C(CN2CCN(C)CC2)C2(O)CCCCC2)cc(Br)c1OCc1ccccc1` (stereo not shown) [Example 391, 1-[1-[4-(benzyloxy)-3-bromo-5-methoxyphenyl]-2-(4-methylpiperazin-1-yl)ethyl]cyclohexanol dihydrochloride], the inhibition at 1 µM was determined as 30%.

On to `OC1(C(CN2CCNCC2)c2cc(Br)c(OCc3ccccc3)c(Br)c2)CCCCC1` (stereo not shown) [Example 392, 1-{1-[4-(benzyloxy)-3,5-dibromophenyl]-2-piperazin-1-ylethyl}cyclohexanol dihydrochloride], for which the inhibition at 1 µM was found to be 68%.

Turning to `CN1CCN(CC(c2cc(Br)c(OCc3ccccc3)c(Br)c2)C2(O)CCCCC2)CC1` (stereo not shown) [Example 393, 1-[1-[4-(benzyloxy)-3,5-dibromophenyl]-2-(4-methylpiperazin-1-yl)ethyl]cyclohexanol dihydrochloride], the inhibition at 1 µM came out at 59%.

Consider `C[C@@H]1CCC(O)(C(CN2CCNCC2)c2cccc(OC(F)(F)F)c2)C1` (stereo partly drawn) [Example 394, (3R)-3-methyl-1-{2-piperazin-1-yl-1-[3-(trifluoromethoxy)phenyl]ethyl}cyclopentanol dihydrochloride], for which the inhibition at 1 µM came to 35%.

For `C[C@@H]1CCC(O)(C(CN2CCN(C)CC2)c2cccc(OC(F)(F)F)c2)C1` (stereo partly drawn) [Example 395, (3R)-3-methyl-1-{2-(4-methylpiperazin-1-yl)-1-[3-(trifluoromethoxy)phenyl]ethyl}cyclopentanol dihydrochloride], the inhibition at 1 µM came out at 92%.

Take `CC1(C)CCCC1(O)C(CN1CCNCC1)c1cccc(OC(F)(F)F)c1` (stereo not shown) [Example 396, 2,2-dimethyl-1-{2-piperazin-1-yl-1-[3-(trifluoromethoxy)phenyl]ethyl}cyclopentanol dihydrochloride]: the inhibition at 1 µM worked out at 33%.

In the case of `CN1CCN(CC(c2ccc(Oc3cccc4ccccc34)cc2)C2(O)CCCCC2)CC1` (stereo not shown) [Example 399, 1-{2-(4-methylpiperazin-1-yl)-1-[4-(1-naphthyloxy)phenyl]ethyl}cyclohexanol dihydrochloride], the inhibition at 1 µM stood at 17%.

As for `Oc1ccc(C(CN2CCNCC2)C2(O)CCCCC2)cc1OC(F)(F)F` (stereo not shown) [Example 400, 4-[1-(1-hydroxycyclohexyl)-2-piperazin-1-ylethyl]-2-(trifluoromethoxy)phenol dihydrochloride], the inhibition at 1 µM stood at 38%.

On to `CN1CCN(CC(c2ccc(O)c(OC(F)(F)F)c2)C2(O)CCCCC2)CC1` (stereo not shown) [Example 401, 4-[1-(1-hydroxycyclohexyl)-2-(4-methylpiperazin-1-yl)ethyl]-2-(trifluoromethoxy)phenol dihydrochloride], for which the inhibition at 1 µM is 25%.

In the case of `COc1ccc(C(CN2CCNCC2)C2(O)CCCCC2)cc1OC(F)(F)F` (stereo not shown) [Example 402, 1-{1-[4-methoxy-3-(trifluoromethoxy)phenyl]-2-piperazin-1-ylethyl}cyclohexanol dihydrochloride], the inhibition at 1 µM worked out at 42%.

`CCOc1ccc(C(CN2CCNCC2)C2(O)CCCCC2)cc1OC(F)(F)F` (stereo not shown) [Example 404, 1-{1-[4-ethoxy-3-(trifluoromethoxy)phenyl]-2-piperazin-1-ylethyl}cyclohexanol dihydrochloride]: the inhibition at 1 µM is 42%.

With `CCOc1ccc(C(CN2CCN(C)CC2)C2(O)CCCCC2)cc1OC(F)(F)F` (stereo not shown) [Example 405, 1-[1-[4-ethoxy-3-(trifluoromethoxy)phenyl]-2-(4-methylpiperazin-1-yl)ethyl]cyclohexanol dihydrochloride], the inhibition at 1 µM worked out at 27%.

As to `CC(C)COc1ccc(C(CN2CCNCC2)C2(O)CCCCC2)cc1OC(F)(F)F` (stereo not shown) [Example 406, 1-{1-[4-isobutoxy-3-(trifluoromethoxy)phenyl]-2-piperazin-1-ylethyl}cyclohexanol dihydrochloride], the inhibition at 1 µM turned out to be 22%.

On to `CC(C)COc1ccc(C(CN2CCN(C)CC2)C2(O)CCCCC2)cc1OC(F)(F)F` (stereo not shown) [Example 407, 1-[1-[4-isobutoxy-3-(trifluoromethoxy)phenyl]-2-(4-methylpiperazin-1-yl)ethyl]cyclohexanol dihydrochloride], for which the inhibition at 1 µM was found to be 12%.

Regarding `CN1CCN(CC(c2ccc(OCc3ccccc3)c(OC(F)(F)F)c2)C2(O)CCCCC2)CC1` (stereo not shown) [Example 408, 1-[1-[4-(benzyloxy)-3-(trifluoromethoxy)phenyl]-2-(4-methylpiperazin-1-yl)ethyl]cyclohexanol dihydrochloride], the pEC50 (in general, −log10 of the EC50, conventionally taken in molar units) was 6.40.

Take `OC1(C(CN2CCNCC2)c2ccc(CCc3ccccc3)cc2)CCCCC1` (stereo not shown) [Example 409, 1-{1-[4-(2-phenylethyl)phenyl]-2-piperazin-1-ylethyl}cyclohexanol dihydrochloride]: the inhibition at 1 µM came out at 62%.

For `CN1CCN(CC(c2ccc(CCc3ccccc3)cc2)C2(O)CCCCC2)CC1` (stereo not shown) [Example 410, 1-{2-(4-methylpiperazin-1-yl)-1-[4-(2-phenylethyl)phenyl]ethyl}cyclohexanol dihydrochloride], the inhibition at 1 µM was 51%.

In turn, `CN1CCN(C[C@H](c2ccc(OCc3ccccc3)cc2)C2(O)CCCCC2)CC1` [Example 411, 1-[(2S)-1-[4-(benzyloxy)phenyl]-2-(4-methylpiperazin-1-yl)ethyl]cyclohexanol dihydrochloride] had a negative-log EC50 (pEC50) of 6.32.

Regarding `CN1CCN(C[C@@H](c2ccc(OCc3ccccc3)cc2)C2(O)CCCCC2)CC1` [Example 412, 1-[(2R)-1-[4-(benzyloxy)phenyl]-2-(4-methylpiperazin-1-yl)ethyl]cyclohexanol dihydrochloride], the pEC50 is 6.86.

As for `OC1(C(CN2CCNCC2)c2ccc(OCc3ccccc3)c(F)c2)CCCCC1` (stereo not shown) [Example 413, 1-{1-[4-(benzyloxy)-3-fluorophenyl]-2-piperazin-1-ylethyl}cyclohexanol dihydrochloride], the inhibition at 1 µM came out at 76%.

Regarding `CN1CCN(CC(c2ccc(OCc3ccccc3)c(F)c2)C2(O)CCCCC2)CC1` (stereo not shown) [Example 414, 1-{1-[4-(benzyloxy)-3-fluorophenyl]-2-(4-methylpiperazin-1-yl)ethyl}cyclohexanol dihydrochloride], the inhibition at 1 µM came to 96%.

In the case of `OC1(C(CN2CCNCC2)c2ccc(OCc3ccc(C(F)(F)F)cc3)c(F)c2)CCCCC1` (stereo not shown) [Example 415, 1-[1-(3-fluoro-4-{[4-(trifluoromethyl)benzyl]oxy}phenyl)-2-piperazin-1-ylethyl]cyclohexanol dihydrochloride], the inhibition at 1 µM was 84%.

As for `CN1CCN(CC(c2ccc(OCc3ccc(C(F)(F)F)cc3)c(F)c2)C2(O)CCCCC2)CC1` (stereo not shown) [Example 416, 1-[1-(3-fluoro-4-{[4-(trifluoromethyl)benzyl]oxy}phenyl)-2-(4-methylpiperazin-1-yl)ethyl]cyclohexanol dihydrochloride], the inhibition at 1 µM worked out at 91%.

`Cc1ccc(COc2ccc(C(CN3CCNCC3)C3(O)CCCCC3)cc2F)cc1` (stereo not shown) [Example 417, 1-(1-{3-fluoro-4-[(4-methylbenzyl)oxy]phenyl}-2-piperazin-1-ylethyl)cyclohexanol dihydrochloride]: the inhibition at 1 µM came out at 78%.

Consider `Cc1ccc(COc2ccc(C(CN3CCN(C)CC3)C3(O)CCCCC3)cc2F)cc1` (stereo not shown) [Example 418, 1-[1-(3-fluoro-4-{[4-(methyl)benzyl]oxy}phenyl)-2-(4-methylpiperazin-1-yl)ethyl]cyclohexanol dihydrochloride], for which the inhibition at 1 µM came to 71%.

In the case of `OC1(C(CN2CCNCC2)c2ccc(OCc3ccc(C(F)(F)F)cc3)c(Cl)c2)CCCCC1` (stereo not shown) [Example 419, 1-[1-(3-chloro-4-{[4-(trifluoromethyl)benzyl]oxy}phenyl)-2-piperazin-1-ylethyl]cyclohexanol dihydrochloride], the inhibition at 1 µM came to 46%.

With `CN1CCN(CC(c2ccc(OCc3ccc(C(F)(F)F)cc3)c(Cl)c2)C2(O)CCCCC2)CC1` (stereo not shown) [Example 420, 1-[1-(3-chloro-4-{[4-(trifluoromethyl)benzyl]oxy}phenyl)-2-(4-methylpiperazin-1-yl)ethyl]cyclohexanol dihydrochloride], the inhibition at 1 µM was 68%.

As to `OC1(C(CN2CCNCC2)c2ccc(OCc3ccccc3C(F)(F)F)c(Cl)c2)CCCCC1` (stereo not shown) [Example 421, 1-[1-(3-chloro-4-{[2-(trifluoromethyl)benzyl]oxy}phenyl)-2-piperazin-1-ylethyl]cyclohexanol dihydrochloride], the inhibition at 1 µM came out at 59%.

On to `CN1CCN(CC(c2ccc(OCc3ccccc3C(F)(F)F)c(Cl)c2)C2(O)CCCCC2)CC1` (stereo not shown) [Example 422, 1-[1-(3-chloro-4-{[2-(trifluoromethyl)benzyl]oxy}phenyl)-2-(4-methylpiperazin-1-yl)ethyl]cyclohexanol dihydrochloride], for which the inhibition at 1 µM was 20%.

Take `OC1(C(CN2CCNCC2)c2ccc(OCc3cccc(C(F)(F)F)c3)c(Cl)c2)CCCCC1` (stereo not shown) [Example 423, 1-[1-(3-chloro-4-{[3-(trifluoromethyl)benzyl]oxy}phenyl)-2-piperazin-1-ylethyl]cyclohexanol dihydrochloride]: the inhibition at 1 µM worked out at 79%.

For the molecule `CN1CCN(CC(c2ccc(OCc3cccc(C(F)(F)F)c3)c(Cl)c2)C2(O)CCCCC2)CC1` (stereo not shown) [Example 424, 1-[1-(3-chloro-4-{[3-(trifluoromethyl)benzyl]oxy}phenyl)-2-(4-methylpiperazin-1-yl)ethyl]cyclohexanol dihydrochloride], the inhibition at 1 µM was 75%.

As to `OC1(C(CN2CCNCC2)c2ccc(OCc3ccc(Br)cc3F)c(Cl)c2)CCCCC1` (stereo not shown) [Example 425, 1-(1-{4-[(4-bromo-2-fluorobenzyl)oxy]-3-chlorophenyl}-2-piperazin-1-ylethyl)cyclohexanol dihydrochloride], the inhibition at 1 µM stood at 80%.

(Values after patent US7550456B2, “Substituted aryl cycloalkanoyl derivatives and methods of their use” (Wyeth, priority 2003, dated 2009).)
